Key:
[1] = molecular target: T1, Mouse urotensin (mUR2) (Mus musculus, UniProt Q8VIH9); experiment: Radioligand binding, mouse urotensin mUR2 membranes, FlashPlate, [125I]-Urotensin II; conditions: compound at 10 μM; for A11 radioligand binding inhibition: mouse urotensin mUR2 membranes
T1 construct: purchased Perkin Elmer Biosignal
T1 sequence (Q8VIH9 1-385): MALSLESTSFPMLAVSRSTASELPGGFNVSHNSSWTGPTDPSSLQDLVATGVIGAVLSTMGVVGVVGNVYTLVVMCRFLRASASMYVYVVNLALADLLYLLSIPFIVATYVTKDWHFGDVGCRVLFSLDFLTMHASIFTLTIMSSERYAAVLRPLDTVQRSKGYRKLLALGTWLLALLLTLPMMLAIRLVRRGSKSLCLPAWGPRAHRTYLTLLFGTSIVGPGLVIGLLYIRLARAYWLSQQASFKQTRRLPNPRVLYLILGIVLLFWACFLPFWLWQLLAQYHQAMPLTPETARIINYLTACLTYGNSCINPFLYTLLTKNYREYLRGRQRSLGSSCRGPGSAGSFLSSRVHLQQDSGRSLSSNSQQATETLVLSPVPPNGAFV
How it was run: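 Cloned mouse urotensin (mUR2) receptor membranes from Perkin Elmer Biosignal were immobilized in FlashPlate microplates using a proprietary coating. Each well got 19.5 μl buffer, then 0.5 μl of DMSO, reference ligand, or compound. Adding 5 μl of [125I]-Urotensin II, diluted to 5× final concentration in binding buffer, started binding. Plates were sealed with TopSeal-A and incubated 1 hour at room temperature in the dark. Wells were counted for 30 seconds each on a TopCount after a 60-second delay, and percentage inhibition was calculated.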

[2] = molecular target: T2, Human opioid (ORL1) (Homo sapiens, UniProt P41146); experiment: Radioligand binding, human opioid ORL1 membranes, FlashPlate, [125I]-Nociceptin; conditions: compound at 10 μM; for A10 radioligand binding inhibition: human ORL1 membranes
T2 construct: purchased Perkin Elmer Biosignal
How it was run: (§1)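 Cloned human receptor membranes were coated onto FlashPlate wells and incubated with radioligand and compound (added from a 0.5 mM DMSO daughter plate) for 1 hour at room temperature in the dark. Scintillation counting gave percent inhibition, with DMSO defining total and reference ligand defining non-specific binding.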

[3] = molecular target: T3, Human melanocortin (MC5) (Homo sapiens, UniProt P33032); experiment: Radioligand binding, human melanocortin MC5 membranes, FlashPlate, [125I]-NDP-αMSH; conditions: compound at 10 μM; for A5 radioligand binding inhibition: human melanocortin MC5 membranes
T3 construct: purchased Perkin Elmer Biosignal
How it was run: as §1

[4] = molecular target: T4, Human melanin-concentrating hormone (MCH1) (Homo sapiens, UniProt Q99705); experiment: Radioligand binding, human melanin-concentrating hormone MCH1 membranes, FlashPlate, [125I]-S36057; conditions: compound at 10 μM; for A6 radioligand binding inhibition: human MCH1 membranes
T4 construct: purchased Perkin Elmer Biosignal
How it was run: as §1

[5] = molecular target: T5, Human κ-Opioid (KOP) (Homo sapiens, UniProt P41145); experiment: Radioligand binding, human κ-opioid (KOP) membranes, filtration, [3H]-Diprenorphine; conditions: compound at 10 μM; for A2 radioligand binding inhibition: human κ-opioid (KOP) membranes
T5 construct: purchased Perkin Elmer Biosignal
How it was run: (§2)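 Filtration binding on cloned human receptor membranes (1 Unit/well), [125I]-Substance P for NK1 and [3H]-Diprenorphine for KOP, 1 h at room temperature. Filters PEI-presoaked, washed with cold 50 mM Tris-HCl pH 7.4, counted by scintillation; percent inhibition calculated, reference ligand defining non-specific binding.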

[6] = molecular target: T6, Human neuropeptide Y (NPY-Y1) (Homo sapiens, UniProt P25929); experiment: Radioligand binding, human neuropeptide Y NPY-Y1 membranes, FlashPlate, [125I]-PYY; conditions: compound at 10 μM; for A9 radioligand binding inhibition: human NPY-Y1 membranes
T6 construct: purchased Perkin Elmer Biosignal
T6 sequence (P25929 1-384): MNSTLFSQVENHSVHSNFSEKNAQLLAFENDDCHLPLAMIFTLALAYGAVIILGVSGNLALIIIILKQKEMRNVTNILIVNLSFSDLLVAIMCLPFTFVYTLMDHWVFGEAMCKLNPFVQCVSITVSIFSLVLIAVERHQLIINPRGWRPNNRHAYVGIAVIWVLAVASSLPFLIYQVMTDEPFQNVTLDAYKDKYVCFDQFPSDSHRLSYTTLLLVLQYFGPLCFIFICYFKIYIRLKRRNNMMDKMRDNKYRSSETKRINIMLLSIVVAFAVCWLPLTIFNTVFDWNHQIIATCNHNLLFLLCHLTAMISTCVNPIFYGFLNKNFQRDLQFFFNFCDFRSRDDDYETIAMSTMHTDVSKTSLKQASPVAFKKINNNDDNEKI
How it was run: as §1

[7] = molecular target: T7, Human Melanocortin (MC3) (Homo sapiens, UniProt P41968); experiment: Radioligand binding, human melanocortin MC3 membranes, FlashPlate, [125I]-NDP-αMSH; conditions: compound at 10 μM; for A3 radioligand binding inhibition: human melanocortin MC3 membranes
T7 construct: purchased Perkin Elmer Biosignal
How it was run: as §1

[8] = molecular target: T8, Human neurokinin (NK1) (Homo sapiens, UniProt P25103); experiment: Radioligand binding, human neurokinin NK1 membranes, filtration, [125I]-Substance P; conditions: compound at 10 μM; for A8 radioligand binding inhibition: human neurokinin NK1 membranes
T8 construct: purchased Perkin Elmer Biosignal
How it was run: as §2

[9] = molecular target: T9, Human μ-opioid (MOP) (Homo sapiens, UniProt P35372); experiment: Radioligand binding, human μ-opioid (MOP) membranes, FlashPlate, [3H]-Naloxone; conditions: compound at 10 μM; for A7 radioligand binding inhibition: human μ-opioid (MOP) membranes
T9 construct: purchased Perkin Elmer Biosignal
How it was run: as §1

[10] = molecular target: T10, Human δ-opioid (DOP) (Homo sapiens, UniProt P41143); experiment: Radioligand binding, human δ-opioid (DOP) membranes, FlashPlate, [3H]-Bremazocine; conditions: compound at 10 μM; for A1 radioligand binding inhibition: human δ-opioid (DOP) membranes
T10 construct: purchased Perkin Elmer Biosignal
How it was run: as §1

[11] = molecular target: T11, Human Melanocortin (MC4) (Homo sapiens, UniProt P32245); experiment: Radioligand binding, human melanocortin MC4 membranes, FlashPlate, [125I]-NDP-αMSH; conditions: compound at 10 μM; for A4 radioligand binding inhibition: human melanocortin MC4 membranes
T11 construct: purchased Perkin Elmer Biosignal
How it was run: as §1

T5 sequence (P41145 whole entry): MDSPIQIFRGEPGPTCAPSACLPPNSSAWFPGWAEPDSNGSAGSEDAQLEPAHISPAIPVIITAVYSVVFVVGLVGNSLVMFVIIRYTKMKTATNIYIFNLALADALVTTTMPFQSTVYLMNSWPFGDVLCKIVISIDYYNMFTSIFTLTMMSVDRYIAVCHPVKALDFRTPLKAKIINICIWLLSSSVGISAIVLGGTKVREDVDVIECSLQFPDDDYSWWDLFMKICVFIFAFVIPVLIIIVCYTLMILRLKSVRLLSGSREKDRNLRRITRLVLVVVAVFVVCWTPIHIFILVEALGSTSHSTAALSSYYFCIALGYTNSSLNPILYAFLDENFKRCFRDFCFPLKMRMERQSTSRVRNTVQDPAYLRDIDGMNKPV
T4 sequence (Q99705 whole entry): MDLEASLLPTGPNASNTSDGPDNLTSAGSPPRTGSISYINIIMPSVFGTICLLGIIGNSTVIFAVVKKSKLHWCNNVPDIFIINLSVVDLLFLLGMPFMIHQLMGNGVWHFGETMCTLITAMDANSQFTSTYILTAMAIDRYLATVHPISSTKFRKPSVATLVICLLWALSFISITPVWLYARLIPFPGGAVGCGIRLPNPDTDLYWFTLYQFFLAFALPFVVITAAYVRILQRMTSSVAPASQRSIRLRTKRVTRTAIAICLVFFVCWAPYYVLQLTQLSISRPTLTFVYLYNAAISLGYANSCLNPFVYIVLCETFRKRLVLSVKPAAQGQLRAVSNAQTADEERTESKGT
T2 sequence (P41146 whole entry): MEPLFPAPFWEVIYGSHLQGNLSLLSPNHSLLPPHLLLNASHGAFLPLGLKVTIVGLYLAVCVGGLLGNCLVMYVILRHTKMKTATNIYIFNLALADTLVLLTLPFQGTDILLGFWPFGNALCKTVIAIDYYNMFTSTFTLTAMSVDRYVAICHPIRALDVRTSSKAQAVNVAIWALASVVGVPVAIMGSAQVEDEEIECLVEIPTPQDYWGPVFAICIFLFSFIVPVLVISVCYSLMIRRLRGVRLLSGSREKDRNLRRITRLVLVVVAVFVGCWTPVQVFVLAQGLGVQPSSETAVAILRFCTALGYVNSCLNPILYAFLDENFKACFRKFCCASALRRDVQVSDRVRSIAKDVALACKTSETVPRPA
T8 sequence (P25103 whole entry): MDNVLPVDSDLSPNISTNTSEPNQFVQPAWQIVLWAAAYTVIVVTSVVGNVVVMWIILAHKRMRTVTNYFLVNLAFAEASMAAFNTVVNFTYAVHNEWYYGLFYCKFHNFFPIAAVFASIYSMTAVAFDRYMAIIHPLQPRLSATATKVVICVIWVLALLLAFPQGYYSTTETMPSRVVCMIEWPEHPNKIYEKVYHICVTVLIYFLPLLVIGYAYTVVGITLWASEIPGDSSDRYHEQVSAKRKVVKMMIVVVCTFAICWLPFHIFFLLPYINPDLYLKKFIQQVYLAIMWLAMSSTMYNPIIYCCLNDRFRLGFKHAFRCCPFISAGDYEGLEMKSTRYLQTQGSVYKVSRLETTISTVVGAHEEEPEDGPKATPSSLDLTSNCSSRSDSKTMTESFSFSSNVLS
T11 sequence (P32245 whole entry): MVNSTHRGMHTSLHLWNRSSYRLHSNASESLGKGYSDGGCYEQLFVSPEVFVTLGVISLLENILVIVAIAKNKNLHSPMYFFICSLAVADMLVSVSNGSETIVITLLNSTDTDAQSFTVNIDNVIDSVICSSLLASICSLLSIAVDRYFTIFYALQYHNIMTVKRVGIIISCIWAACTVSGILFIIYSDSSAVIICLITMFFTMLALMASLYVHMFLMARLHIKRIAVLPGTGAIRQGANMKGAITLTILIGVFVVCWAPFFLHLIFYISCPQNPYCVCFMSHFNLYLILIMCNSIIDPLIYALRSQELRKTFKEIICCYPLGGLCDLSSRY
T3 sequence (P33032 whole entry): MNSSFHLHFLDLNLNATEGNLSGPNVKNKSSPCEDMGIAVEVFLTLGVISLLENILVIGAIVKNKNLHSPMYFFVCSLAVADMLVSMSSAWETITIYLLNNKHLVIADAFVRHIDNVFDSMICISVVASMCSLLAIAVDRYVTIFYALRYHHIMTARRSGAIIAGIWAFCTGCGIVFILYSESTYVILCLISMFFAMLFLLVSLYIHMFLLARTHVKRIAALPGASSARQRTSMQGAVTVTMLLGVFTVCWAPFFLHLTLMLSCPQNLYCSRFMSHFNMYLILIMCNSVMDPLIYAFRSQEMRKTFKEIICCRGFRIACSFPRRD
T9 sequence (P35372 whole entry): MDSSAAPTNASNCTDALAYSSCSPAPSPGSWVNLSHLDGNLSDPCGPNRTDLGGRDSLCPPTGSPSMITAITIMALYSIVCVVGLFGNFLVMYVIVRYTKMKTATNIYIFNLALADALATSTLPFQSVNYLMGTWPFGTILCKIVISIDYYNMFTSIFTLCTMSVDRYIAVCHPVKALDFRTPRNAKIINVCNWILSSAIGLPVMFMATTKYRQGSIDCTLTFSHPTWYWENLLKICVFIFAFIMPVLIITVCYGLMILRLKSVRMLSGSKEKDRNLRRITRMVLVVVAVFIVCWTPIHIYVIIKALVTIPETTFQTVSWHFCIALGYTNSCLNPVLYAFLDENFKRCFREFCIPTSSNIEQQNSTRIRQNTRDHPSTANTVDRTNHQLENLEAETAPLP
T10 sequence (P41143 whole entry): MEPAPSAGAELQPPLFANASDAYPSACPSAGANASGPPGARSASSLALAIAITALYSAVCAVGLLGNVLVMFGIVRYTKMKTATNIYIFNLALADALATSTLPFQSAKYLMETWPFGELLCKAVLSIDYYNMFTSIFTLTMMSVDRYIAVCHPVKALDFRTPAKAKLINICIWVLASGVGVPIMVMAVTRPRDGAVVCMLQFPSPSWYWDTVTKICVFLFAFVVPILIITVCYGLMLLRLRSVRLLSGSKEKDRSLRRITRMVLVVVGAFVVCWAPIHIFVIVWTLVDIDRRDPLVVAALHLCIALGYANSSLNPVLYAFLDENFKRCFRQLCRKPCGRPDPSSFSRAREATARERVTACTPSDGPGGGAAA
T7 sequence (P41968 whole entry): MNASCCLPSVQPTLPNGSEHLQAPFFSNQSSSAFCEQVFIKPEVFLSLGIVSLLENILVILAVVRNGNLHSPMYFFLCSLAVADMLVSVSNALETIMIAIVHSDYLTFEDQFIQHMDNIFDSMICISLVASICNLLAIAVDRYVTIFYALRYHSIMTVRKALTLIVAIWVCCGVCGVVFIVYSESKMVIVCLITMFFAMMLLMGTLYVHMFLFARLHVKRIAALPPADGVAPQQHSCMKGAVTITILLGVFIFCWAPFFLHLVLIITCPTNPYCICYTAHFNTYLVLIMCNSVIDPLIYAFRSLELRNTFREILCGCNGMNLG

| Compound | A11: inhibition of radioligand binding, mouse urotensin (mUR2) ([1]; [125I]-Urotensin II) | A10: inhibition of radioligand binding, human opioid (ORL1) ([2]; [125I]-Nociceptin) | A5: inhibition of radioligand binding, human melanocortin (MC5) ([3]; [125I]-NDP-αMSH) | A6: inhibition of radioligand binding, human melanin-concentrating hormone (MCH1) ([4]; [125I]-S36057) | A2: inhibition of radioligand binding, human κ-opioid (KOP) ([5]; [3H]-Diprenorphine) | A3: inhibition of radioligand binding, human melanocortin (MC3) ([7]; [125I]-NDP-αMSH) | A8: inhibition of radioligand binding, human neurokinin (NK1) ([8]; [125I]-Substance P) | A1: inhibition of radioligand binding, human δ-opioid (DOP) ([10]; [3H]-Bremazocine) | A4: inhibition of radioligand binding, human melanocortin (MC4) ([11]; [125I]-NDP-αMSH) | A11 radioligand binding inhibition [1] | A10 radioligand binding inhibition [2] | A5 radioligand binding inhibition [3] | A6 radioligand binding inhibition [4] | A2 radioligand binding inhibition [5] | A9 radioligand binding inhibition [6] | A3 radioligand binding inhibition [7] | A8 radioligand binding inhibition [8] | A7 radioligand binding inhibition [9] | A1 radioligand binding inhibition [10] | A4 radioligand binding inhibition [11] | other results |
| --- | --- | --- | --- | --- | --- | --- | --- | --- | --- | --- | --- | --- | --- | --- | --- | --- | --- | --- | --- | --- | --- |
| CSC1O[C@H](COCc2ccc(-c3ccccc3)cc2)[C@@H](O)[C@@H](OCc2ccc(-c3ccccc3)cc2)[C@H]1NC(=O)CCNC(=N)N (stereo partly shown) [compound 293] | − (“−” indicates less than 50% inhibition at 10 μM) | − (“−” indicates less than 50% inhibition at 10 μM) | − (“−” indicates less than 50% inhibition at 10 μM) | − (“−” indicates less than 50% inhibition at 10 μM) | − (“−” indicates less than 50% inhibition at 10 μM) | − (“−” indicates less than 50% inhibition at 10 μM) | + (“+” indicates greater than 50% inhibition at 10 μM) | − (“−” indicates less than 50% inhibition at 10 μM) | − (“−” indicates less than 50% inhibition at 10 μM) |  |  |  |  |  |  |  |  |  |  |  | A9: inhibition of radioligand binding, human neuropeptide Y (NPY-Y1) ([6]; [125I]-PYY): − (“−” indicates less than 50% inhibition at 10 μM); A7: inhibition of radioligand binding, human μ-opioid (MOP) ([9]; [3H]-Naloxone): − (“−” indicates less than 50% inhibition at 10 μM) |
| N=C(N)NCCC(=O)N[C@H]1C(OCc2ccc(Cl)cc2)O[C@H](COCc2ccc3ccccc3c2)[C@@H](O)[C@@H]1OCc1ccc(Cl)cc1 (stereo partly shown) [compound 523] | − (“−” indicates less than 50% inhibition at 10 μM) | + (“+” indicates greater than 50% inhibition at 10 μM) | + (“+” indicates greater than 50% inhibition at 10 μM) | + (“+” indicates greater than 50% inhibition at 10 μM) | + (“+” indicates greater than 50% inhibition at 10 μM) | + (“+” indicates greater than 50% inhibition at 10 μM) | + (“+” indicates greater than 50% inhibition at 10 μM) | − (“−” indicates less than 50% inhibition at 10 μM) | + (“+” indicates greater than 50% inhibition at 10 μM) |  |  |  |  |  |  |  |  |  |  |  | A9: inhibition of radioligand binding, human neuropeptide Y (NPY-Y1) ([6]; [125I]-PYY, 10 µM): − (“−” indicates less than 50% inhibition at 10 μM); A7: inhibition of radioligand binding, human μ-opioid (MOP) ([9]; [3H]-Naloxone, 10 µM): + (“+” indicates greater than 50% inhibition at 10 μM) |
| COC[C@H]1OC(OCc2ccc3ccccc3c2)[C@H](NC(=O)CCNC(=N)N)[C@@H](OCc2ccc(-c3ccccc3)cc2)[C@@H]1O (stereo partly shown) [compound 16] |  |  |  |  |  |  |  |  |  | − (“−” indicates less than 50% inhibition at 10 μM) | − (“−” indicates less than 50% inhibition at 10 μM) | + (“+” indicates greater than 50% inhibition at 10 μM) | + (“+” indicates greater than 50% inhibition at 10 μM) | + (“+” indicates greater than 50% inhibition at 10 μM) | − (“−” indicates less than 50% inhibition at 10 μM) | + (“+” indicates greater than 50% inhibition at 10 μM) | + (“+” indicates greater than 50% inhibition at 10 μM) | + (“+” indicates greater than 50% inhibition at 10 μM) | + (“+” indicates greater than 50% inhibition at 10 μM) | + (“+” indicates greater than 50% inhibition at 10 μM) |  |
| COC[C@H]1OC(OCc2ccc(Cl)cc2)[C@H](NC(=O)CNC(=N)N)[C@@H](OCc2cccc(O)c2)[C@@H]1O (stereo partly shown) [compound 137] |  |  |  |  |  |  |  |  |  |  |  |  |  |  |  |  |  |  |  |  | A11 radioligand binding, percentage inhibition ([1]; [125I]-Urotensin II): − (“−” indicates less than 50% inhibition at 10 μM); A10 radioligand binding, percentage inhibition ([2]; [125I]-Nociceptin): − (“−” indicates less than 50% inhibition at 10 μM); A5 radioligand binding, percentage inhibition ([3]; [125I]-NDP-αMSH): + (“+” indicates greater than 50% inhibition at 10 μM); A6 radioligand binding, percentage inhibition ([4]; [125I]-S36057): − (“−” indicates less than 50% inhibition at 10 μM); A2 radioligand binding, percentage inhibition ([5]; [3H]-Diprenorphine): − (“−” indicates less than 50% inhibition at 10 μM); A9 radioligand binding, percentage inhibition ([6]; [125I]-PYY): − (“−” indicates less than 50% inhibition at 10 μM); A3 radioligand binding, percentage inhibition ([7]; [125I]-NDP-αMSH): − (“−” indicates less than 50% inhibition at 10 μM); A8 radioligand binding, percentage inhibition ([8]; [125I]-Substance P): − (“−” indicates less than 50% inhibition at 10 μM); A7 radioligand binding, percentage inhibition ([9]; [3H]-Naloxone): + (“+” indicates greater than 50% inhibition at 10 μM); A1 radioligand binding, percentage inhibition ([10]; [3H]-Bremazocine): − (“−” indicates less than 50% inhibition at 10 μM); A4 radioligand binding, percentage inhibition ([11]; [125I]-NDP-αMSH): − (“−” indicates less than 50% inhibition at 10 μM) |
| COC[C@H]1OC(OCc2ccc(-c3ccccc3)cc2)[C@H](NC(=O)CCCN)[C@@H](OCc2ccc(Cl)cc2)[C@@H]1O (stereo partly shown) [compound 12] |  |  |  |  |  |  |  |  |  | − (“−” indicates less than 50% inhibition at 10 μM) | − (“−” indicates less than 50% inhibition at 10 μM) | − (“−” indicates less than 50% inhibition at 10 μM) | − (“−” indicates less than 50% inhibition at 10 μM) | − (“−” indicates less than 50% inhibition at 10 μM) | − (“−” indicates less than 50% inhibition at 10 μM) | − (“−” indicates less than 50% inhibition at 10 μM) | + (“+” indicates greater than 50% inhibition at 10 μM) | − (“−” indicates less than 50% inhibition at 10 μM) | − (“−” indicates less than 50% inhibition at 10 μM) | − (“−” indicates less than 50% inhibition at 10 μM) |  |

Source: patent US20080009418A1, “Selective Inhibitors” (Alchemia LTD., priority 2004, published 2008)
